Five molecules from ChEMBL document CHEMBL5727173, “Phenyl-(aza)cycloalkyl carboxylic acid GPR120 modulators” (2019) can be followed below.

This test addresses T1, Free fatty acid receptor 4 (Homo sapiens, UniProt Q5NUL3).
T1 sequence (Q5NUL3 whole entry): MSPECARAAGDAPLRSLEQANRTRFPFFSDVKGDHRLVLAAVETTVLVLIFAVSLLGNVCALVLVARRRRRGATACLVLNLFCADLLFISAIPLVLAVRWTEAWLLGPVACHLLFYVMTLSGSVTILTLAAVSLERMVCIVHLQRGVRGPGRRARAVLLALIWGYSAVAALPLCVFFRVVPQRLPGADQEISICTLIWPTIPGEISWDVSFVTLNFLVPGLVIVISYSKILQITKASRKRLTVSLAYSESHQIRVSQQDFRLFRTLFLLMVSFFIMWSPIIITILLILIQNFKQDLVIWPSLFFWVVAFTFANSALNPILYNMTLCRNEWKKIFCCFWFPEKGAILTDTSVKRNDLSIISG
The test can be described thus: GPR120 pERK AlphaScreen SureFire Assay: The human and mouse GPR120-mediated intracellular phosphorylated ERK assays were also established using CHO-K1 cells stably transfected with the short form of human or mouse GPR120 receptor. Cells were cultured in growth medium consisting of F-12 media (Invitrogen Cat. #11765) with 5% Charcoal/Dextran FBS (Invitrogen Cat. #12676-029) and 500 μg/mL GENETICIN® (Life Technologies Cat. #10131-027). Cells were cryo preserved at a concentration of 3×10^6 cells/mL, in 70% F-12, 20% Charcoal/Dextran FBS and 10% DMSO, and frozen in liquid nitrogen at a low passage number.For the pERK assay, 3×10^6 cells/mL cryopreserved human and mouse cells were thawed rapidly in a 37° C. water bath and added to a T-225 flask containing 50 mL growth medium. The flasks were placed in a tissue culture incubator overnight (37° C., 5% CO2). The next day, cells were harvested with trypsin (Gibco Cat. #25300-054), resuspended in serum-containing growth medium and counted using a Cellometer and volume adjusted to a concentration of 0.5×10^6 cells/mL. Cells were plated into 384-well clear bottom tissue culture plates (BD Cat. #353962) at 50 μL/well, for a density of 25,000 cells/well using a MULTIDROP® and incubated for 16-18 hours (overnight) at 37° C. with 5% CO2. The next day, cells were washed once with 50 μL of PBS without Ca++/Mg++ (Gibco Cat. #14190-036) and serum starved in 25 μL of F-12 media without any serum or antibiotics for 2 hours at 37° C. Format: cell-based.

pEC50: −log10 of the molar value.

In general, pEC50 refers to −log10 of the EC50, conventionally taken in molar units.

Turning to `O=C(O)CCCCc1ccc(N2CCC[C@@H](Oc3ccccc3)C2)cc1`, the pEC50 was 6.11.

Consider `O=C(O)COCCc1ccc(N2CCCC(Oc3ccccc3)C2)cc1` (stereo not given), for which the pEC50 was 5.62.

`O=C(O)CCCCc1ccc(N2CCCCC(Oc3ccc(F)cc3)C2)cc1` (stereo not given): the pEC50 was 5.45.

Turning to `O=C(O)CCCCc1ccc(C2CCCC(Nc3ccccc3)C2)cc1` (stereo not given), the pEC50 is 5.52.

Regarding `O=C(O)CCCCc1ccc(N2CCCC(Oc3ccccc3)C2)cc1` (stereo not given), the pEC50 is 6.38.
